Measured values as given in ChEMBL document CHEMBL1143571 (J Med Chem, 2005).

What was measured:
[1] = molecular target: T1, D(3) dopamine receptor (Homo sapiens, UniProt P35462); type: cell-based, CHO
Description: Inhibition constant against [3H]-spiperone binding to human Dopamine receptor D3 expressed in CHO cells

[2] = molecular target: T1, D(3) dopamine receptor
Description: Effective concentration to stimulate human Dopamine receptor D3 mediated [3H]-thymidine incorporation into growing cells using mitogenesis assay

[3] = molecular target: T2, D(2) dopamine receptor (Rattus norvegicus, UniProt P61169); assay: Effective concentration to stimulate rat Dopamine receptor D2S mediated [3H]thymidine incorporation into growing cells using mitogenesis assay
[4] = molecular target: T3, D(2) dopamine receptor (Homo sapiens, UniProt P14416); type: cell-based, CHO
T3 sequence (P14416 whole entry): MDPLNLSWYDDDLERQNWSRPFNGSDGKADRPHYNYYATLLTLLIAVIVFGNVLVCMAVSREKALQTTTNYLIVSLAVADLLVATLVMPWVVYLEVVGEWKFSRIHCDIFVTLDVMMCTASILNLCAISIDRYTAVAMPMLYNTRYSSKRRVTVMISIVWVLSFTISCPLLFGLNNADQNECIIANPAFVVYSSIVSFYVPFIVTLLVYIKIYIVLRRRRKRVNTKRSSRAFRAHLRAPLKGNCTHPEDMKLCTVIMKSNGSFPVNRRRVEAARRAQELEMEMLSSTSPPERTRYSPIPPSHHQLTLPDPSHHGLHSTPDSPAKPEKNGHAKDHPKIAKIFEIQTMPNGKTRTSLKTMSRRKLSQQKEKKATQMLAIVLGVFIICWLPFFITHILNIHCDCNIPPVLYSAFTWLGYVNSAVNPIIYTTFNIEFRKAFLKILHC

[5] = molecular target: T4, D(4) dopamine receptor (Homo sapiens, UniProt P21917)
T4 sequence (P21917 whole entry): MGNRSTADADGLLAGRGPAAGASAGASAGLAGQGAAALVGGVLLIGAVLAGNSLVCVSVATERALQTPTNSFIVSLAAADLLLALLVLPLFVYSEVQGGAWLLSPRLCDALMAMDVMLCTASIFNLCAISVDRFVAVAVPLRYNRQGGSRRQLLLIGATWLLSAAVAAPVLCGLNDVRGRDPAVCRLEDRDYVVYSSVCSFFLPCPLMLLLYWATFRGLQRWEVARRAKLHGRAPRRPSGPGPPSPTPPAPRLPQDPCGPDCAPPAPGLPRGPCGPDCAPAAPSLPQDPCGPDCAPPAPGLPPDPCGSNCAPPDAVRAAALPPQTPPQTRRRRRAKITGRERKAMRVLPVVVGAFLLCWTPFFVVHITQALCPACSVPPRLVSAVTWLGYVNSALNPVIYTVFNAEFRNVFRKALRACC
Description: Effective concentration to stimulate human Dopamine receptor D4.2 mediated [3H]thymidine incorporation into growing cells using mitogenesis assay

[6] = molecular target: T3, D(2) dopamine receptor; type: cell-based, CHO; remark: listed apart in the source
[7] = molecular target: T3, D(2) dopamine receptor; type: cell-based, CHO; remark: listed apart in the source
[8] = molecular target: D(1A) dopamine receptor (Bos taurus, UniProt Q95136); assay: Inhibition constant against [3H]SCH-23390 binding to Dopamine receptor D1 in bovine striatal membranes; type: cell membranes, Striatum, Membrane
D(1A) dopamine receptor, sequence (Q95136 whole entry): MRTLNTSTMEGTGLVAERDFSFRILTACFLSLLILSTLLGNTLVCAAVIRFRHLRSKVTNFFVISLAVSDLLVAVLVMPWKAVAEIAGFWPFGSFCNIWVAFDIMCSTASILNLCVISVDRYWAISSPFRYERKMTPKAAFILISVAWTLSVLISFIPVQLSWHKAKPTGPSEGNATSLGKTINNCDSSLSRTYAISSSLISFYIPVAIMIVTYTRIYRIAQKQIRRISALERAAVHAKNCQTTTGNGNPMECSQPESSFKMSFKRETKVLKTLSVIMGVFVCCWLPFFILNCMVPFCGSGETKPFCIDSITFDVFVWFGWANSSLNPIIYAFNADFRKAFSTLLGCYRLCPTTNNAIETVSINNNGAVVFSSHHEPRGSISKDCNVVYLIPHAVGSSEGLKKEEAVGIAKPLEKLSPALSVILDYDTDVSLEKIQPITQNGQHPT

[9] = molecular target: D(2) dopamine receptor (Rattus norvegicus) (UniProt P61169); assay: Intrinsic activity to sitmulate rat Dopamine receptor D2L mediated [3H]thymidine incorporation into growing cells using mitogenesis assay
D(2) dopamine receptor (Rattus norvegicus), sequence (P61169 whole entry): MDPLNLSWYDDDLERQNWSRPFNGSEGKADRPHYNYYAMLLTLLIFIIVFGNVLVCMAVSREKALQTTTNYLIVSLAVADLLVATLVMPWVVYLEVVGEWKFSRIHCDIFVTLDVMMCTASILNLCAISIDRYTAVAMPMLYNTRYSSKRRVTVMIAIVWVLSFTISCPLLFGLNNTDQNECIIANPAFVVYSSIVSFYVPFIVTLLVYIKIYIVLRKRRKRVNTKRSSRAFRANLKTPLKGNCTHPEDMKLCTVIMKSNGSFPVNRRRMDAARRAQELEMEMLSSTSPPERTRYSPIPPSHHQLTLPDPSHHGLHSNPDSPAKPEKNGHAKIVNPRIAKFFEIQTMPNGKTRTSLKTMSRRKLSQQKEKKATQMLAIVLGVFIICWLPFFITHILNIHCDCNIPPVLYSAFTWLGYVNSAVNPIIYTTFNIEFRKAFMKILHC

[10] = molecular target: T4, D(4) dopamine receptor; type: cell-based, CHO
Description: High inhibition constant against [3H]spiperone binding to human Dopamine receptor D4.4 expressed in CHO cells

[11] = molecular target: T3, D(2) dopamine receptor; type: cell-based, CHO; remark: listed apart in the source
Description: High inhibition constant against [3H]spiperone binding to human Dopamine receptor D2L expressed in CHO cells

[12] = molecular target: D(2) dopamine receptor (Rattus norvegicus) (UniProt P61169); assay: Intrinsic activity to stimulate rat Dopamine receptor D2S mediated [3H]-thymidine incorporation into growing cells using mitogenesis assay
[13] = molecular target: T2, D(2) dopamine receptor; assay: Effective concentration to stimulate rat Dopamine receptor D2L mediated [3H]thymidine incorporation into growing cells using mitogenesis assay
[14] = molecular target: T1, D(3) dopamine receptor; remark: listed apart in the source
[15] = molecular target: T4, D(4) dopamine receptor; type: cell-based, CHO; remark: listed apart in the source
[16] = molecular target: T1, D(3) dopamine receptor; remark: listed apart in the source

T1 sequence (P35462 whole entry): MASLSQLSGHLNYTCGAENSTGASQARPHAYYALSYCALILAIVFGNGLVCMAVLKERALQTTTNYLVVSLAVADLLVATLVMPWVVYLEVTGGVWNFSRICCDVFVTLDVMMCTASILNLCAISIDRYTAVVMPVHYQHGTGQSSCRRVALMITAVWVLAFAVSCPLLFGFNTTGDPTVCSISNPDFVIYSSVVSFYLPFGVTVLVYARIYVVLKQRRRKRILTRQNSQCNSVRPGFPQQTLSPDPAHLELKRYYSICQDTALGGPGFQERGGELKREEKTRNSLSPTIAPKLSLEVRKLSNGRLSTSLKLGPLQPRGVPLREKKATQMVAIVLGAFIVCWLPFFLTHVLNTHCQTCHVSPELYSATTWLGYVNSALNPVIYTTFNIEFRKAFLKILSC
T2 sequence (P61169 whole entry): as the sequence (P61169 whole entry) above

SMILES | Ki [1] [nM] | other results
CCCN(CCC)[C@@H]1CCn2c(/C=N/O)ccc2C1 | 2090 | –
CCCN(CCC)[C@H]1CCn2c(ccc2-c2ccccc2)C1 | 7940 | –
CCCN(CCC)[C@@H]1CCn2c(ccc2C(=O)c2ccccc2)C1 | 1550 | –
CCCN(CCC)[C@H]1CCn2c(ccc2C(=O)OCC)C1 | 4370 | –
CCCN(CCC)[C@@H]1CCn2c(ccc2CN(C)C)C1 | 12000 | –
CCCN(CCC)[C@@H]1CCn2cccc2C1 | 1660 | –
CCCN(CCC)[C@H]1CCn2cc(C)cc2C1 | 794 | –
CCCN[C@H]1CCc2nc(N)sc2C1 [PRAMIPEXOLE] | – | Ki [8]: > 20000 nM; Intrinsic activity [9]: 85%; Intrinsic activity [12]: 103%
CCCN(CCC)[C@@H]1CCn2cc(C)cc2C1 | 912 | –
CCCN(CCC)[C@@H]1CCn2c(C=C(C#N)C#N)ccc2C1 | 6030 | –
CCCN(CCC)[C@@H]1CCn2c(ccc2-c2ccccc2)C1 | 2400 | –
CCCN(CCC)[C@H]1CCn2c(ccc2C(=O)c2ccccc2)C1 | 1910 | –
CCCN(CCC)[C@@H]1CCn2c(C#N)ccc2C1 | 2820 | –
CCCN(CCC)[C@@H]1CCn2c(ccc2C(C)=O)C1 | 2820 | –
CCCN(CCC)[C@H]1CCn2c(ccc2CN(C)C)C1 | 3630 | –
Oc1ccc2c(c1O)-c1cccc3c1[C@@H](C2)NCC3 | 58.9 | –
CCCN(CCC)[C@@H]1CCn2c(ccc2C(=O)C(F)(F)F)C1 | 2510 | –
CCCN(CCC)[C@@H]1CCn2ccc(C)c2C1 | 1450 | –
CCCN(CCC)[C@@H]1CCn2c(/C=N\O)ccc2C1 | 4790 | –

More lines, in order of falling Ki [1], values ahead:

Ki [1] [nM] | SMILES | other results
724 | CCCN(CCC)[C@@H]1CCn2c(CO)ccc2C1 | –
676 | CCCN(CCC)[C@H]1CCn2ccc(C)c2C1 | –
617 | CCCN(CCC)[C@@H]1CCn2c(C)ccc2C1 | –
575 | CCCN(CCC)[C@H]1CCn2cccc2C1 | –
501 | CCCN(CCC)[C@@H]1CCn2ccc(C=O)c2C1 | –
417 | CCCN(CCC)[C@H]1CCn2c(C)ccc2C1 | –
324 | CCCN(CCC)[C@@H]1CCn2c(ccc2C(=O)OCC)C1 | –
324 | CCCN(CCC)[C@@H]1CCn2ccc(CO)c2C1 | –
263 | CCCN(CCC)[C@H]1CCn2c(ccc2C(=O)C(Cl)(Cl)Cl)C1 | –
87.1 | CCCN(CCC)[C@@H]1CCn2c(ccc2C(=O)C(Cl)(Cl)Cl)C1 | –
60.3 | CCCN(CCC)[C@H]1CCn2c(C=C(C#N)C#N)ccc2C1 | –
49 | CCCN(CCC)[C@H]1CCn2c(/C=N\O)ccc2C1 | –
45.7 | CCCN(CCC)[C@H]1CCn2c(ccc2C(C)=O)C1 | –
43.7 | CCCN(CCC)[C@@H]1CCc2c(ccn2C=O)C1 | –
38.9 | CCCN(CCC)[C@H]1CCc2c(ccn2C=O)C1 | –
30.9 | CCCN(CCC)[C@H]1CCn2c(/C=N/O)ccc2C1 | –
22.9 | CCCN(CCC)[C@H]1CCn2c(ccc2C(=O)C(F)(F)F)C1 | –
7.24 | CCCN(CCC)[C@H]1CCn2c(C#N)ccc2C1 | EC50 [2]: 2.4 nM; EC50 [3]: 130 nM; Ki [4]: 130 nM; Ki [6]: 5100 nM; Ki [7]: 6500 nM; Ki [8]: > 20000 nM; Intrinsic activity [9]: 99%; Ki [10]: 40 nM; Ki [11]: 190 nM; Intrinsic activity [12]: 95%; EC50 [13]: 42 nM; Ki [14]: 7.2 nM; Ki [15]: 9700 nM; Ki [16]: 140 nM
5.25 | CCCN(CCC)[C@H]1CCn2c(C=O)ccc2C1 | EC50 [2]: 1.1 nM; EC50 [3]: 79 nM; Ki [4]: 41 nM; EC50 [5]: 4200 nM; Ki [6]: 3000 nM; Ki [7]: 6900 nM; Ki [8]: > 20000 nM; Intrinsic activity [9]: 98%; Ki [10]: 32 nM; Ki [11]: 52 nM; Intrinsic activity [12]: 101%; EC50 [13]: 11 nM; Ki [14]: 5.3 nM; Ki [15]: 2500 nM
